Test results reported in paper PMC7146544, “Dual Plasmepsin-Targeting Antimalarial Agents Disrupt Multiple Stages of the Malaria Parasite Life Cycle” (Cell Host & Microbe, 2020).
Read-outs that look alike come from different tables or passages of the source.

Experiments:
P. knowlesi = P. knowlesi drug sensitivity assay; format: cell-based, Plasmodium knowlesi; conditions: 48 h, blood stage parasites, read-out: EC50, inhibition of P. knowlesi growth
Method: The drug sensitivity assays were performed in 96-well plates using 50 μL culture at 0.5% parasitemia and 2% hematocrit. The compounds were serially diluted in 1% DMSO. Parasite growth assays were performed for 48 h. Parasite cultures were then fixed with 50 μL 0.25% glutaraldehyde for 30 min at room temperature. The culture supernatants were removed and the cells were stained with 5% SYBR Green in the dark for 30 min. Parasitemia was defined by the proportion of Alexa 488-A positive cells in 50,000 recorded events using LSR II analyzer (BD). The percentage of parasite growth was normalized with the DMSO vehicle control group and the highest-dosage group, and plotted as a dose-response curve in Prism 7.

P. falciparum = P. falciparum humanized NOD-scid IL2R_null mouse model
Method: Compounds were tested in the murine P. falciparum SCID model ([Angulo-Barturen et al., 2008]). […] The mice were intravenously infected with 2 × 10^7 P. falciparum Pf3D7-infected erythrocytes (day 0) ([Angulo-Barturen et al., 2008]). On day 3 after infection, mice were randomly allocated to treatments that were administered once a day for 4 consecutive days (n = 3 mice) by oral gavage at 10 mL/kg. Parasitemia was measured by microscopy. Chimerism was monitored by flow cytometry using anti-murine erythrocyte TER119 monoclonal antibody (PharMingen, San Diego, CA) and SYTO-16 and then analyzed by flow cytometry in serial 2 μL blood samples taken every 24 h until assay completion.

P. berghei sporozoites = assay: In vivo analysis of P. berghei liver parasite growth and transition to blood infection; parameters: species or system Plasmodium berghei
Method: Female BALB/c mice were infected with PbmCherryLuci sporozoites by either intravenous injection or infectious mosquito bite challenge. Mice (infected by either route) received either no treatment or were treated orally with WM382 (prepared as previously described) at doses and h post infection (hpi) as indicated. For i.v. injections, freshly isolated salivary gland sporozoites were filtered through glass wool to remove debris before 40,000 sporozoites were resuspended in 200 μL Schneider’s Insect Media immediately prior to injection. For infection by mosquito bite, the percent of mosquitoes that contained oocysts was used to place 5 infected mosquitoes in individual feeding cups (for example, if 83% of mosquitoes in the batch had oocysts then 6 mosquitoes were placed in each cup). Mice were anesthetised using ketamine/xylazine and placed on individual feeding cups to begin the infection. Mosquitoes were allowed to feed on the mice for 15 min and mice were rotated between feeding cups every min to promote probing and ensure that all mice were equally exposed to infectious mosquito bites. From day 3 – 30 post infection mice were monitored daily for the presence of parasites in Giemsa stained thin blood smears and considered to be protected from blood infection if they remained negative through this period.
In addition to monitoring thin blood smears, luciferase activity was used to measure liver infection (52 hpi), liver egress (55 hpi) and transition to initial blood infection (65 hpi) in mice infected intravenously. Briefly, mice were injected i.p. with 200 μL XenoLight D-Luciferin (PerkinElmer) and returned to their cage for 5 min prior to anesthesia by isofluorane inhalation for a further 5 min. Between 10 – 15 min post injection of D-luciferin, mice were maintained under isofluorane anesthesia and bioluminescent signal collected using an IVIS Lumina S5 system (PerkinElmer) with a medium binning factor and 3 min integration time. Bioluminescence emanating from a region of interest (ROI) covering the liver region (52 and 55 hpi) or whole animal (65 hpi) was quantified using Living Image software version 4.7.2 (PerkinElmer) and expressed as the total flux in photons/second (p/s). Background flux was measured using an identically sized ROI placed over the lower pelvic region below the liver (52 and 55 hpi) or uninfected mice (65 hpi) and is expressed as the limit of detection (LOD). The parasitemia of the first round of erythrocytic infection was measured at 65 hpi using a LSRFortessa X20 (Becton Dickinson) flow cytometer. Briefly, a drop of whole blood was collected from the tail in 200 μL human tonicity (HT) PBS and immediately analyzed. To identify infected blood cells, mCherry signal intensity was plotted against GFP signal intensity as a decoy reporter. The number of mCherry^+ / GFP^— events are reported per 1 × 10^6 whole blood cells with blood from uninfected mice used as a negative control.

[1] = i.v. sporozoites, 2 × 20 mpk oral
[2] = i.v. sporozoites, oral 20 mpk or 100 mpk b.i.d. at 36 and 48 hpi
[3] = mosquito bite infection, 20 mpk at 36 hpi
[4] = mosquito bite infection, 50 mpk at 36 hpi

CCC1(CC)CC(=O)N([C@@H]2CCOc3ccc(C(=O)N[C@H]4CC(C)(C)Oc5ccccc54)cc32)C(=N)N1 [WM382]
EC50 (P. knowlesi; Plasmodium knowlesi): 0.2 nM
EC50 (P. knowlesi): 0.18 ± 0.06 nM
day by which mice were cleared of parasitemia (P. falciparum; WM382 3 mpk oral q.d. 4 days from day 3): ≤ 7 days
day by which mice were cleared of parasitemia (P. falciparum; WM382 10 mpk oral q.d. 4 days from day 3): ≤ 7 days
day by which mice were cleared of parasitemia (P. falciparum; WM382 30 mpk oral q.d. 4 days from day 3): ≤ 6 days
efficacy against P. falciparum including parasitemia clearance rate, compared with chloroquine (P. falciparum; in vivo and in vitro): at least equivalent to chloroquine
delay to patency (P. berghei sporozoites; [1]): > 4 days
sterile protection against blood infection (P. berghei sporozoites; [1]): 50%
sterile protection against blood infection (P. berghei sporozoites; i.v. sporozoites, 2 × 100 mpk oral): 100%
killing of liver stages and liver egress by 55 hpi (P. berghei sporozoites; [2]): did not kill P. berghei liver stages or markedly prevent liver egress in vivo
parasite liver infection at 52 hpi (P. berghei sporozoites; [2]): no effect
delay to patency (P. berghei sporozoites; [3]): 2 days
protection from blood infection (P. berghei sporozoites; [3]): all mice developed blood infection
delay to patency (P. berghei sporozoites; [4]): 5 days
sterile protection (P. berghei sporozoites; [4]): 80%
protection from patent infection (P. berghei sporozoites; mosquito bite infection, single dose 100 mpk at 36 hpi): protect all mice from developing patent infection
protection from blood infection, prophylactic treatment (P. berghei sporozoites; single dose 50 mpk 4 h before mosquito bite infection): did not confer any protection
